These results are taken from PubChem BioAssay AID1996.

A word on the kinetic solubility: it is solubility judged after dilution from a stock solution rather than from solid.

In brackets after ≈: the same amount, converted by molar mass. Where only a bound is given, the exact number is not on record here.

For this series the following is noted: buffer; pH 7.4; 200.0 µM.
Consider `N#CCCN(Cc1cccs1)C(=O)Nc1ccc(F)cc1`, for which the kinetic solubility is > 45.5 µg/mL. On to `Cn1nccc1C(=O)OCC(=O)Nc1ccc(S(N)(=O)=O)cc1`, for which the solubility (kinetic) was > 50.8 µg/mL. The result for `O=C(CCSCc1ccc(Cl)cc1)NCc1cccs1` reads 28.3 µg/mL (≈ 86.8 µM). The result for `FC(F)(F)c1cccc(-n2cc(-c3ccccc3)[nH]c2=S)c1` reads < 0.3 µg/mL.

As to `COc1ccc(NC(=O)Nc2cnccn2)cc1OC`, the solubility (kinetic) is > 41.1 µg/mL.

Regarding `Cc1c(C(=O)O)sc2nc3n(c(=O)c12)CCC3`, the kinetic solubility was > 37.5 µg/mL. The result for `CN(Cc1cccs1)C(=O)COc1cccc2c1OC(C)(C)C2` reads > 49.7 µg/mL; that for `CC(C)=CC(=O)OCC(=O)Nc1ccc(SC(F)F)cc1`, 10.6 µg/mL (≈ 33.6 µM); that for `O=C1NCCCN1Cc1ccc(Cl)cc1`, > 33.7 µg/mL. The result for `CC(=O)c1sccc1NC(=O)CC(C)(C)CC(=O)O` reads 32.5 µg/mL (≈ 115 µM); that for `CC(C)Oc1cccc(OCCN2C(=O)c3ccccc3C2=O)c1`, 13.8 µg/mL (≈ 42.4 µM). The result for `CCOC(=O)C1CCN(c2ncnc3c2cnn3C)CC1` reads > 43.4 µg/mL; that for `Cc1[nH]c2ccccc2c1C(=O)C(=O)Nc1ccc2c(c1)OCCO2`, 1.9 µg/mL (≈ 5.65 µM).

Take `CC(C)(C)c1ccc(OCc2cnc(Cl)s2)cc1`: the kinetic solubility is < 0.6 µg/mL. With `CCN(Cc1cc2cc(C)ccc2[nH]c1=O)C(=O)c1cccc([N+](=O)[O-])c1` the figure was 11.5 µg/mL (≈ 31.5 µM). With `Cc1ccccc1NC(=O)/C=C/c1cccs1` the figure was 19.5 µg/mL (≈ 80.1 µM). The result for `CCN(CC)C(=O)c1csc(Nc2cccc3ccccc23)n1` reads 7.2 µg/mL (≈ 22.1 µM). Take `O=[N+]([O-])c1ccc(-n2cnc3ccccc32)c([N+](=O)[O-])c1`: the kinetic solubility is > 42.6 µg/mL. For `COC(=O)C/C=N/N=C1/NC(=O)/C(=C/C(=O)O)S1`, the kinetic solubility was > 40.7 µg/mL. Molecule `Cc1ccc(CNC(=O)CNC(=O)c2ccc(Br)o2)cc1` displayed a kinetic solubility of 14.6 µg/mL (≈ 41.6 µM). The result for `O=C1CSC(c2ccc(F)c(F)c2)N1c1ccccc1F` (stereo not given) reads 38.3 µg/mL (≈ 124 µM); that for `CNc1nc(SC)nc2ccccc12`, > 30.8 µg/mL.

As to `CS(=O)(=O)N1CCc2nc(-c3ccccc3)sc2C1`, the kinetic solubility was determined as 10.4 µg/mL (≈ 35.3 µM).

As to `CCc1ccc(NC(=O)c2cnc(SC)nc2C)cc1`, the kinetic solubility turned out to be 17.4 µg/mL (≈ 60.5 µM). Turning to `CCOP(=O)(CN(CC)C(=O)c1ccccc1Br)OCC`, the kinetic solubility is > 56.7 µg/mL. With `CCOc1cccc(C(=O)Nc2ccncc2)c1` the figure was > 36.3 µg/mL; with `c1csc(-c2nc(N3CCCCC3)no2)c1`, 3.8 µg/mL (≈ 16.1 µM). With `O=C(Nc1ccccc1)N(C1=NCCC1)c1ccccc1` the figure was 5.4 µg/mL (≈ 19.3 µM); with `COCC(=O)N1CCCC(N(C)CCc2ccc(OC)c(OC)c2)C1` (stereo not given), > 52.6 µg/mL; with `O=C(O)C1CCC(N2C(=O)C3C4CCC(C4)C3C2=O)CC1` (stereo not given), > 43.7 µg/mL. With `CCS(=O)(=O)Nc1cc2c3c(c1)CCC(=O)N3CCC2` the figure was > 44.2 µg/mL; with `N#Cc1ccc(NC(=O)c2cc(-c3cccs3)on2)cc1`, < 0.2 µg/mL; with `O=C(CCl)Nc1ccccc1C(=O)c1ccccc1`, > 41.1 µg/mL.

In turn, `O=S(=O)(c1ccccc1)c1nc(-c2ccco2)oc1N1CCCCC1` yielded a solubility (kinetic) of 16.1 µg/mL (≈ 44.9 µM). The molecule `N/C(Cc1cccc2ccccc12)=N\O` showed a kinetic solubility of 15.2 µg/mL (≈ 75.9 µM). With `CCNc1oc(/C=C/c2ccc(OCC)cc2)nc1C#N` the figure was 1.7 µg/mL (≈ 6 µM). With `CC(=O)Nc1cccc(C(=O)Nc2nc(C)cs2)c1` the figure was 37.4 µg/mL (≈ 136 µM).

On to `O=C(CN1CCN(Cc2ccc(F)cc2)CC1)NCc1ccccc1`, for which the solubility (kinetic) is > 51.2 µg/mL. The result for `COC(=O)c1cccnc1NC(=S)NC1CCCCC1` reads 0.9 µg/mL (≈ 3.07 µM). The result for `CC1CCN(C(=O)c2ccccc2NC(=O)Cc2ccccc2)CC1` reads > 50.5 µg/mL; that for `CC1Oc2ccccc2N(CC(=O)NC2CCCC2)C1=O` (stereo not given), > 43.3 µg/mL. The result for `CC1CCCC(C)N1C(=O)COC(=O)Cc1ccc(F)cc1` (stereo not given) reads 30.9 µg/mL (≈ 101 µM). Take `CN(C)C(=O)c1ccc(OCC(F)(F)F)nc1`: the kinetic solubility came out at 36.7 µg/mL (≈ 148 µM).

As for `COCCN(C/C=C/c1ccccc1)C/C=C/c1ccccc1`, the solubility (kinetic) turned out to be 10.1 µg/mL (≈ 32.9 µM). The molecule `Cc1cccc(OCC(=O)N2CCCc3ccccc32)c1` registered a solubility (kinetic) of 30.3 µg/mL (≈ 108 µM). With `N/C(=N\OC(=O)c1cccnc1)c1ccccc1Cl` the figure was 38.9 µg/mL (≈ 141 µM); with `COc1ccc(Cl)cc1NC(=O)CN(C)CC(=O)NCc1ccc(F)cc1`, > 59.1 µg/mL.

For `CCOC(=O)C1(Cc2cccc(F)c2)CCN(C(=O)C2CCC2)CC1`, the solubility (kinetic) is > 52.1 µg/mL.

Take `CC(=O)Nc1nc2ccccc2n1Cc1ccc(Cl)cc1`: the solubility (kinetic) stood at 7.8 µg/mL (≈ 26 µM). The result for `COc1ccc([N+](=O)[O-])c(OC)c1C(=O)NC(=O)Nc1c(C)cccc1C` reads 0.9 µg/mL (≈ 2.41 µM); that for `CCN(CC)S(=O)(=O)c1ccc(C(=O)Nc2cc(S(=O)(=O)N3CCOCC3)ccc2O)cc1`, 12.2 µg/mL (≈ 24.5 µM). With `COCC(=O)N1CCN(c2cccc(Cl)c2)CC1` the figure was > 40.3 µg/mL; with `CCC(Sc1nc(-c2ccccc2)c(-c2ccccc2)[nH]1)C(=O)O` (stereo not given), 44.8 µg/mL (≈ 132 µM). With `CC(C)c1ccc(N2C(=O)CC(=O)NC2=O)cc1` the figure was 34.4 µg/mL (≈ 140 µM); with `CC(C)n1c(NCCO)nc2ccccc21`, > 32.9 µg/mL; with `CCOC(=O)c1c(N)sc2c1CCCC2=O`, 34.7 µg/mL (≈ 145 µM). In turn, `COc1ccccc1-c1cn(-c2ccccc2)c(=S)[nH]1` registered a kinetic solubility of 3.8 µg/mL (≈ 13.5 µM). With `CCCn1c(SCC(=O)NCCCN2CCCC2=O)nc2ccccc2c1=O` the figure was > 60.4 µg/mL; with `Cc1ccc(C(=O)N2CCC(Cc3ccccc3)CC2)cc1[N+](=O)[O-]`, 10.3 µg/mL (≈ 30.4 µM); with `COc1ccc(C)cc1S(=O)(=O)n1c([N+](=O)[O-])cnc1C`, > 46.7 µg/mL. The result for `COc1cccc(NC(=O)C2=COCCO2)c1` reads > 35.3 µg/mL; that for `CCC1CCCCN1C(=O)CCCc1ccccc1` (stereo not given), 33.2 µg/mL (≈ 128 µM); that for `O=C(COC(=O)/C=C/c1cccc(Br)c1)NC1CCCC1`, 4.1 µg/mL (≈ 11.6 µM).

Consider `O=C(CN1CCOCC1)NCCc1ccccc1`, for which the kinetic solubility was > 37.2 µg/mL. Turning to `CC(C)Oc1ccc(C(=O)NCCCNC(=O)c2ccccn2)cc1`, the solubility (kinetic) is 48.6 µg/mL (≈ 142 µM). On to `COc1ccccc1C(=O)NCCNC(=O)c1ccc(C)nc1`, for which the solubility (kinetic) is 45.7 µg/mL (≈ 146 µM). As to `COCCCn1c(=O)c2ccccc2n(Cc2ccccc2C)c1=O`, the solubility (kinetic) was > 50.8 µg/mL. On to `CC(=O)c1ccccc1NC(=O)CC1(CC(=O)O)CCCCC1`, for which the kinetic solubility was > 47.6 µg/mL.

With `Cc1cccc(Oc2nc3c(c(=O)n(C)c(=O)n3C)n2C)c1`, the solubility (kinetic) is > 45 µg/mL. For the molecule `Cc1cnc(NC(=O)Nc2ccccc2)c(C)n1`, the solubility (kinetic) stood at 32 µg/mL (≈ 132 µM). With `CC1CCC(NS(=O)(=O)c2cccc3nsnc23)CC1` (stereo not given) the figure was > 46.7 µg/mL; with `COc1ccc(S(=O)(=O)NCCN2CCNC2=O)cc1OC`, 47.9 µg/mL (≈ 145 µM); with `S=c1[nH]cc(-c2ccccc2)[nH]1`, > 26.4 µg/mL. With `Cl.Clc1cccc(CN2C3=NCCCN3c3ccccc32)c1` the figure was > 50.1 µg/mL; with `CN1C(=O)c2ccc(C(=O)Nc3cccnc3)cc2C1=O`, > 42.2 µg/mL; with `CCOC(=O)c1cnc(-c2ccccc2)nc1Oc1ccc(OC)cc1`, < 0.4 µg/mL.

For the molecule `Cc1ccc(CN(C)C(=O)c2c(C)nn(-c3ccccc3)c2C)cc1`, the solubility (kinetic) was > 50 µg/mL. With `Cc1onc(-c2ccccc2Cl)c1C(=O)N1CCCCC1` the figure was > 45.7 µg/mL; with `O=C1CCN(S(=O)(=O)c2ccc(Cl)cc2)CC1`, > 41.1 µg/mL; with `O=c1c2cc(F)ccc2[nH]c(=S)n1Cc1ccc(F)cc1`, 0.9 µg/mL (≈ 2.96 µM). As to `O=C(c1c(F)cccc1F)N(C1CCCCC1)C1CCCCC1`, the kinetic solubility came to 1 µg/mL (≈ 3.11 µM).

Regarding `CCCCn1c(N)c(N(CC)C(=O)c2cccs2)c(=O)[nH]c1=O`, the solubility (kinetic) was 10.1 µg/mL (≈ 30 µM). The result for `CCOc1cc(S(=O)(=O)NCC2CCCO2)ccc1F` (stereo not given) reads > 45.5 µg/mL; that for `Cc1ccc(C(=O)N(C)Cc2nc3ccccc3c(=O)[nH]2)cc1NC(=O)c1ccco1`, > 62.5 µg/mL; that for `COc1cccc(NC(=S)N(C)C2CCN(C)CC2)c1`, > 44 µg/mL. With `COc1cc2nc(NC(=O)c3ccccc3)sc(=O)c2cc1OC` the figure was < 0.4 µg/mL; with `O=C(CN1C(=O)CNC1=O)Nc1cc(Cl)cc(Cl)c1`, > 45.3 µg/mL. With `CCCCC(=O)NC(c1ccccc1)c1ccc2cccnc2c1O` (stereo not given) the figure was < 0.4 µg/mL; with `CC(=O)N(C)c1ccc(N=C2C(=O)Nc3ccccc32)cc1`, > 44 µg/mL; with `Cc1ccnc(NC(=O)CC(c2ccccc2)c2ccccc2)n1`, 35.7 µg/mL (≈ 112 µM).

`Cc1cnc(NCCc2ccccc2)s1`: the kinetic solubility came out at 23 µg/mL (≈ 105 µM). The result for `CC(NC(=O)c1ccc(Br)o1)c1ccccc1` (stereo not given) reads 35.8 µg/mL (≈ 122 µM); that for `Cn1c(N)c(C(=O)CSc2nnc(N)s2)c(=O)n(C)c1=O`, > 49.3 µg/mL. The result for `Cc1cc(C)c(C)c(S(=O)(=O)NCC(=O)Nc2ccccc2F)c1C` reads 12.2 µg/mL (≈ 33.5 µM); that for `CCCCS(=O)(=O)N1CCC(C(=O)Oc2ccc(Cl)cc2)CC1`, 1.7 µg/mL (≈ 4.72 µM). The result for `Cc1ccccc1C(=O)Nc1ccc(N(C)C)c2ccccc12` reads 13.6 µg/mL (≈ 44.7 µM); that for `O=C(COC(=O)/C=C/c1cc(Br)ccc1F)NC1CC1`, 7 µg/mL (≈ 20.5 µM); that for `CC(=O)O.CC1=CC(C)C(/C=N/N=C(N)N)C(C)C1` (stereo not given), > 40.3 µg/mL.

For `CCc1ccc(N2CC(C(=O)N3CCCCCC3)CC2=O)cc1` (stereo not given), the solubility (kinetic) is > 47.2 µg/mL. The result for `O=S(=O)(c1ccc(F)cc1)N1CCN(CCc2ccccc2)CC1` reads 4.1 µg/mL (≈ 11.8 µM).

As for `CN(C)CC[n+]1ccc(C(=O)c2ccccc2)cc1.Cl.[Cl-]`, the solubility (kinetic) is > 49.1 µg/mL. `NC(=NC(=O)c1cccc(C(F)(F)F)c1)c1ccc(C(F)(F)F)cn1` showed a kinetic solubility of 0.9 µg/mL (≈ 2.49 µM).

For the molecule `CC(=O)NN1C(=O)c2ccccc2NC1c1ccc([N+](=O)[O-])o1` (stereo not given), the solubility (kinetic) was > 47.4 µg/mL. With `Oc1ccc(NCc2ccc(OCc3ccccc3)cc2)cc1` the figure was 9.7 µg/mL (≈ 31.8 µM).

As for `COC(=O)c1ccc(C(=S)NCC2(N(C)C)CCCCC2)cc1`, the solubility (kinetic) was 45.6 µg/mL (≈ 136 µM).
